Data from patent US4874898A, “Novel substituted anthrasteroid derivatives” (Shionogi and Co., Ltd. Patent Department, priority 1987, dated 1989).

Assays:
seminal vesicles [1] = experiment: Assay for Antiandrogenic Activity (Subcutaneous administration), seminal vesicle weight; assay type: in vivo, SD-JCL male rats (castrated); conditions: for I. R. (%) A* (Inhibition rate, seminal vesicle) / Weight (Mean mg ± S.E.) A* (seminal vesicle): 7 days; for I. R. (%) A* (Inhibition rate, seminal vesicle): with testosterone propionate 0.02 mg/day, Table 1-1; for Weight (Mean mg ± S.E.) A* (seminal vesicle) / I. R. (%) A* (seminal vesicle): Table 1-2
Description: (§1) Assay for Antiandrogenic Activity (Subcutaneous administration)
(§2) The three week-old SD-JCL male rats were castrated and the drug treatment was started from three days after the castration. The rats were divided into groups; one group consists of six rats. One group was intact with any drug, the 2nd group was treated subcutaneously with a solution or suspension of 0.02 mg of testosterone propionate in sesame oil a day, and the other groups was treated with 0.1 to 3 mg of the test compound and 0.02 mg of testosterone propionate in sesame oil a day. This treatment was carried out for 7 days, successively. The rats were killed next day of the last treatment and the seminal vesicles and ventral prostates were taken out and weighed. Antiandrogenic activity of the test compounds were estimated as […] of seminal vesicles and ventral prostates induced by testosterone propionate.

ventral prostates [2] = experiment: Assay for Antiandrogenic Activity (Subcutaneous administration), ventral prostate weight; assay type: in vivo, SD-JCL male rats (castrated); conditions: for I. R. (%) B* (Inhibition rate, prostate) / Weight (Mean mg ± S.E.) B* (prostate): 7 days; for I. R. (%) B* (Inhibition rate, prostate): with testosterone propionate 0.02 mg/day, Table 1-1; for Weight (Mean mg ± S.E.) B* (prostate) / I. R. (%) B* (prostate): Table 1-2
Description: as §1, §2

seminal vesicles [3] = experiment: Assay for Antiandrogenic Activity (Oral Administration), seminal vesicle weight; assay type: in vivo, SD-JCL male rats (castrated); conditions: 3 mg orally, 7 days, with testosterone propionate 0.02 mg/day s.c.; Table 2
Description: (§3) Assay for Antiandrogenic Activity (Oral Administration)
(§4) The three week-old SD-JCL male rats were castrated and the drug treatment was started from three days after the castration. The rats were divided into groups; one group consists of six rats. One group was treated with 0.02 mg of testosterone propionate in sesame oil a day by injecting subcutaneously and the other groups were treated with 0.02 mg of testosterone propionate and simultaneously treated orally with a suspension of 3 mg of the test compound in sesame oil. The castrated control group was treated with sesame oil. This treatment was continued for 7 days, successively. The rats were killed 24 hours after the last treatment and the seminal vesicles and ventral prostates were taken out and weighed.

ventral prostates [4] = experiment: Assay for Antiandrogenic Activity (Oral Administration), ventral prostate weight; assay type: in vivo, SD-JCL male rats (castrated); conditions: 3 mg orally, 7 days, with testosterone propionate 0.02 mg/day s.c.; Table 2
Description: as §3, §4

[5] = system: Shionogi-carcinoma 115 (SC-115); experiment: Assay for growth inhibitory activity against androgen-dependent tumor (Shionogi-carcinoma 115); assay type: in vivo, mice (castrated); conditions: 14 days
From the text: The followings show an assay for antiandrogenic activity against androgen-dependent tumor, Shionogi-carcinoma 115 (SC-115). The SC-115 is a tumor cell which grows in the presence of an androgen and its hormone dependency is widely known as a prostatic cancer model. Therefore, the androgenic activity is also estimated by examining the growth inhibition effect against this tumor.
Assay for growth inhibitory activity against androgen-dependent tumor (Shionogi-carcinoma 115)
The six week-old mice were castrated and […] of Shionogi-carcinoma tumor pieces was grafted into the back subcutaneously on the fifth day from the castration. The grafted mice were divided into groups, each consisting of seven mice, and the drug treatment was started immediately after the graft. One group was intact with any drug, and the 2nd group was treated subcutaneously with 0.1 mg of testosterone propionate a day. The other groups were treated subcutaneously with a suspension of 0.1 mg of testosterone propionate and 0.1 to 2.0 mg per day of test compounds a day as a conventional steroid solution. This treatment was carried out for 14 days, successively. The mice were killed next day of the last treatment and the tumor was taken out to weigh.

[6] = 0.1 mg/day s.c., with testosterone propionate 0.1 mg/day
[7] = 0.5 mg/day s.c., with testosterone propionate 0.1 mg/day
[8] = 2.0 mg/day s.c., with testosterone propionate 0.1 mg/day
[9] = testosterone propionate alone, 0.02 mg/day s.c.
[10] = 0.1 mg/day s.c., with testosterone propionate
[11] = 0.3 mg/day s.c., with testosterone propionate
[12] = 1 mg/day s.c., with testosterone propionate
[13] = 3 mg/day s.c., with testosterone propionate

CC1C2=CC(=O)CCC2CC2C1CCC1(C)C(O)CCC21 (stereo not shown)
I. R. (%) A* (Inhibition rate, seminal vesicle) (seminal vesicles [1]; 1 mg/day s.c.): 25%

CC1=C2C=CC3(C)C(O)CCC3C2CC2CCC(=O)C=C12 (stereo not shown)
I. R. (%) A* (Inhibition rate, seminal vesicle) (seminal vesicles [1]; 1 mg/day s.c.): 69% | I. R. (%) B* (Inhibition rate, prostate) (ventral prostates [2]; 1 mg/day s.c.): 44%

CC1=C2CCC3(C)C(=O)CCC3C2CC2CCC(=O)C=C12 (stereo not shown)
I. R. (%) A* (Inhibition rate, seminal vesicle) (seminal vesicles [1]; 1 mg/day s.c.): 57% | I. R. (%) B* (Inhibition rate, prostate) (ventral prostates [2]; 1 mg/day s.c.): 42%

CCC(=O)OC1CCC2C3CC4CCC(=O)C=C4C(C)=C3CCC12C (stereo not shown)
I. R. (%) A* (Inhibition rate, seminal vesicle) (seminal vesicles [1]; 1 mg/day s.c.): 74% | I. R. (%) B* (Inhibition rate, prostate) (ventral prostates [2]; 1 mg/day s.c.): 50%

CC1=C2CCC3(C)C(CCC3(C)O)C2CC2CCC(=O)C=C12 (stereo not shown)
I. R. (%) A* (Inhibition rate, seminal vesicle) (seminal vesicles [1]; 1 mg/day s.c.): 67% | I. R. (%) B* (Inhibition rate, prostate) (ventral prostates [2]; 1 mg/day s.c.): 41%

CC1=C2CCC3(C)C(O)C(F)CC3C2CC2CCC(=O)C=C12 (stereo not shown)
I. R. (%) A* (Inhibition rate, seminal vesicle) (seminal vesicles [1]; 1 mg/day s.c.): 77% | I. R. (%) B* (Inhibition rate, prostate) (ventral prostates [2]; 1 mg/day s.c.): 52%

CC1=C2CCC3(C)C(OC4=CCCCCCC4)CCC3C2CC2CCC(=O)C=C12 (stereo not shown)
I. R. (%) A* (seminal vesicle) (seminal vesicles [3]): 39% | I. R. (%) B* (prostate) (ventral prostates [4]): 34%

CC1=C2CC3(CCC2CC2C1=CCC1(C)C(=O)CCC21)OCCO3 (stereo not shown)
I. R. (%) A* (seminal vesicle) (seminal vesicles [3]): 26% | I. R. (%) B* (prostate) (ventral prostates [4]): 25%

CC1=C2CCC3(C)C(O)C(CBr)CC3C2CC2CCC(=O)C=C12 (stereo not shown)
I. R. (%) A* (seminal vesicle) (seminal vesicles [3]): 51% | I. R. (%) B* (prostate) (ventral prostates [4]): 43%

CC1=C2CCC3(C)C(O)C(Br)CC3C2CC2CCC(=O)C=C12 (stereo not shown)
Inhibition Rate (%) of tumor weight [5, 6]: 11% | Tumor Weight (Mean mg ± S.E.) [5, 6]: 2871 ± 277 mg | Inhibition Rate (%) of tumor weight [5, 7]: 40% | Tumor Weight (Mean mg ± S.E.) [5, 7]: 1950 ± 144 mg | Inhibition Rate (%) of tumor weight [5, 8]: 69% | Tumor Weight (Mean mg ± S.E.) [5, 8]: 1004 mg

CCC(=O)O[C@H]1CC[C@H]2[C@@H]3CCC4=CC(=O)CC[C@]4(C)[C@H]3CC[C@]12C [Testosterone propionate, testosterone propionate, reference compound]
Weight (Mean mg ± S.E.) A* (seminal vesicle) (seminal vesicles [1]; [9]): 26.1 ± 0.8 mg | Weight (Mean mg ± S.E.) B* (prostate) (ventral prostates [2]; [9]): 40.1 ± 1.3 mg | Tumor Weight (Mean mg ± S.E.) ([5]; testosterone propionate alone, 0.1 mg/day s.c.): 3241 ± 456 mg

CC1=C2CCC3(C)C(O)CCC3C2CC2CCC(=O)C=C12 (stereo not shown) [drawing 52]
Weight (Mean mg ± S.E.) A* (seminal vesicle) (seminal vesicles [1]; [10]): 19.9 ± 0.6 mg | I. R. (%) A* (seminal vesicle) (seminal vesicles [1]; [10]): 31% | Weight (Mean mg ± S.E.) A* (seminal vesicle) (seminal vesicles [1]; [11]): 20.7 ± 1.3 mg | I. R. (%) A* (seminal vesicle) (seminal vesicles [1]; [11]): 27% | Weight (Mean mg ± S.E.) A* (seminal vesicle) (seminal vesicles [1]; [12]): 15.0 ± 0.7 mg | I. R. (%) A* (seminal vesicle) (seminal vesicles [1]; [12]): 56% | Weight (Mean mg ± S.E.) A* (seminal vesicle) (seminal vesicles [1]; [13]): 11.4 ± 0.8 mg | I. R. (%) A* (seminal vesicle) (seminal vesicles [1]; [13]): 74% | Weight (Mean mg ± S.E.) B* (prostate) (ventral prostates [2]; [10]): 37.9 ± 3.0 mg | Weight (Mean mg ± S.E.) B* (prostate) (ventral prostates [2]; [11]): 37.3 ± 3.0 mg | Weight (Mean mg ± S.E.) B* (prostate) (ventral prostates [2]; [12]): 27.5 ± 2.2 mg | I. R. (%) B* (prostate) (ventral prostates [2]; [12]): 43% | Weight (Mean mg ± S.E.) B* (prostate) (ventral prostates [2]; [13]): 23.8 ± 1.6 mg | I. R. (%) B* (prostate) (ventral prostates [2]; [13]): 55%

CC1=C2CCC3(C)C(O)CCC3C2CC2CCC(=O)C=C12 (stereo not shown) [drawing 56]
Inhibition Rate (%) of tumor weight [5, 6]: 48% | Tumor Weight (Mean mg ± S.E.) [5, 6]: 1682 ± 177 mg | Inhibition Rate (%) of tumor weight [5, 7]: 59% | Tumor Weight (Mean mg ± S.E.) [5, 7]: 1343 ± 283 mg | Inhibition Rate (%) of tumor weight [5, 8]: 92% | Tumor Weight (Mean mg ± S.E.) [5, 8]: 255 mg
